The supplement of paper PMC9663587

What was measured:
Test in all cases: area over the GR curve, 72 h; higher = more effect;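 further: Dye Drop or Deep Dye Drop imaging of viable cells in 384-well plates (Hoechst nuclei, LIVE/DEAD dye), nine half-log doses, GR normalized to DMSO controls and time-zero plates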
BT20 = test system: BT20
CAL120 = test system: CAL120
HCC1806 = test system: HCC1806
MCF10A = test system: MCF10A
MCF12A = test system: MCF12A
MDAMB330 = test system: MDAMB330
MDAMB415 = test system: MDAMB415
MDAMB453 = test system: MDAMB453
SKBR3 = test system: SKBR3
SUM1315 = test system: SUM1315
SUM149 = test system: SUM149
SUM44PE = test system: SUM44PE

Structure (SMILES) | area over the GR curve (BT20) [GR] | area over the GR curve (CAL120) [GR] | area over the GR curve (HCC1806) [GR] | area over the GR curve (MCF10A) [GR] | area over the GR curve (MCF12A) [GR] | area over the GR curve (MDAMB330) [GR] | area over the GR curve (MDAMB415) [GR] | area over the GR curve (MDAMB453) [GR] | area over the GR curve (SKBR3) [GR] | area over the GR curve (SUM1315) [GR] | area over the GR curve (SUM149) [GR] | area over the GR curve (SUM44PE) [GR]
CC1(N)CCN(c2cnc(-c3cccc(Cl)c3Cl)c(N)n2)CC1 [SHP099] (max 10 µM) | 0.0072 | -0.0004 | -0.0155 | 0.081 | 0.0144 | 0.121 | 0.0605 | 0.0286 | 0.0253 | 0.121 | 0.001 | 0.075
CN1CCN(CCOc2cc(OC3CCOCC3)c3c(Nc4c(Cl)ccc5c4OCO5)ncnc3c2)CC1 [Saracatinib/AZD0530] (max 10 µM) | 0.159 | 0.173 | 0.233 | 0.125 | 0.0317 | 0.303 | 0.208 | 0.0491 | -0.0324 | 0.244 | 0.132 | 0.112
Cc1cc(C(C)Nc2ccccc2)c2nc(N3CCOCC3)cc(=O)n2c1 (stereo unspecified) [TGX221] (max 10 µM) | -0.0612 | -0.0168 | -0.02 | 0.005 | -0.0153 | -0.0042 | 0.224 | -0.0643 | -0.0125 | 0.136 | -0.0254 | -0.155
CN(C)C/C=C/C(=O)Nc1ccc(C(=O)Nc2cccc(Nc3ncc(Cl)c(-c4c[nH]c5ccccc45)n3)c2)cc1 [THZ1] (max 1 µM) | 0.108 | 0.337 | 0.367 | 0.36 | 0.256 | 0.86 | 0.453 | 0.553 | 0.673 | 0.229 | 0.425 | 0.706
CN(C)C/C=C/C(=O)Nc1ccc(C(=O)N2CCC[C@@H](Nc3ncc(Cl)c(-c4c[nH]c5ccccc45)n3)C2)cc1 [THZ531] (max 1 µM) | 0.0416 | 0.21 | 0.134 | 0.162 | 0.0965 | 0.747 | 0.434 | 0.537 | 0.545 | 0.148 | 0.154 | 0.177
CN(C)C/C=C/C(=O)Nc1ccc(C(=O)Nc2cccc(Nc3cc(-c4c[nH]c5ccccc45)ncn3)c2)cc1 [THZ-P1-2] (max 10 µM) | 0.137 | 0.124 | 0.199 | 0.13 | 0.0465 | 0.592 | 0.683 | 0.533 | 0.154 | 0.0029 | 0.117 | 0.619
Cc1nc(-c2cn3c(n2)-c2ccc(-c4cnn(C(C)(C)C(N)=O)c4)cc2OCC3)n(C(C)C)n1 [Taselisib/GDC0032] (max 10 µM) | 0.736 | 0.235 | 0.258 | 0.484 | 0.263 | 1.15 | 0.516 | 1.01 | 0.807 | 0.397 | 0.205 | 1.02
O=C1NC(=O)[C@@H](c2cn3c4c(cccc24)CCC3)[C@@H]1c1c[nH]c2ccccc12 [Tivantinib/ARQ197] (max 10 µM) | 0.416 | 0.465 | 0.446 | 0.451 | 0.374 | 0.368 | 0.213 | 0.404 | 0.479 | 0.475 | 0.446 | 0.762
Nc1ccc(-c2ccc3ncc4ccc(=O)n(-c5cccc(C(F)(F)F)c5)c4c3c2)cn1 [Torin2] (max 1 µM) | 0.536 | 0.487 | 0.388 | 0.337 | 0.327 | 0.879 | 0.627 | 0.679 | 0.734 | 0.486 | 0.255 | 0.737
CC[C@@H]1C(=O)N(C)c2cnc(Nc3ccc(C(=O)N[C@H]4CC[C@H](N5CCN(CC6CC6)CC5)CC4)cc3OC)nc2N1C(C)C [Volasertib/BI6727] (max 1 µM) | 0.79 | 0.676 | 0.726 | 0.447 | 0.321 | 0.778 | 0.546 | 0.488 | 0.694 | 0.664 | 0.569 | 0.623
O=C(CCCCCCC(=O)Nc1ccccc1)NO [Vorinostat] (max 10 µM) | 0.151 | 0.241 | 0.24 | 0.168 | 0.0874 | 0.271 | 0.172 | 0.263 | 0.345 | 0.166 | 0.225 | 0.181
C=CC(=O)Nc1ccc(C(=O)Nc2[nH]nc3c2CN(C(=O)N[C@H](CN(C)C)c2ccccc2)C3(C)C)cc1 [YKL-5-124] (max 10 µM) | 0.693 | 0.591 | 1.01 | 0.921 | 0.803 | 0.925 | 0.664 | 0.834 | 0.965 | 0.703 | 0.875 | 1.16
CN1CCN(C(=O)c2ccc3cc(CCNc4ncnc5ccc(C#N)cc45)ccc3c2)CC1 [senexin b] (max 10 µM) | 0.275 | 0.131 | 0.0969 | -0.0308 | 0.11 | 0.146 | 0.173 | 0.193 | 0.172 | 0.175 | 0.129 | 0.369
